Like-named read-outs stand apart in the source and are kept apart here.
Legend:
MCF-7 = assay: MTT cytotoxicity assay, MCF-7; format: cell-based
Experimental: (§2) The cytotoxicity of C1–C3 was determined using an MTT (3-(4,5-dimethylthiazol-2-yl)-2,5-diphenyltetrazolium bromide) assay on various cancer cells.

Hela = assay: MTT cytotoxicity assay, Hela; format: cell-based
Experimental: as §2

[1] = tested on: cisplatin-resistant lung cancer (A549cisR) cells; assay: MTT cytotoxicity assay, A549cisR; format: cell-based
Experimental: as §2

WI-38 = assay: MTT cytotoxicity assay, WI-38; format: cell-based
Experimental: as §2

A549 cells [2] = assay: MTT cytotoxicity assay, A549
Experimental: as §2

[3] = Solubility in saline (0.9% sodium chloride solution); format: physicochemical
A549 cells [4] = assay: Wound-healing assay (cell migration); format: cell-based; details: 2 μM and 4 μM, 24 h
Experimental: (§1) Cell migration is crucial to cancer development and metastasis; metastasis is a major cause of many cancer-related deaths. The migration is very usually assessed by the application of the wound-healing assay, which involves the creation of an artificial gap in a cancer cell monolayer, followed by observation of the area covered with migrating cells. Therefore, the inhibiting effect of C1 on cancer cell migration was evaluated using a wound-healing assay. […] In addition, the effect of C1 on A549 cell invasion was investigated using a transwell assay.
To evaluate the impact of C1 on cell migration, a wound-healing assay was carried out. A549 cells were seeded into 6-well plates and incubated overnight at 37 °C. C1 was dissolved in saline. Subsequently, scratch wounds were performed in the monolayer of cells using sterile toothpicks, and then the cells were treated with the Cu complex (2 μM and 4 μM). The cells were captured using an inverted microscope at 0 and 24 h.

A549 cells [5] = assay: Transwell invasion assay; format: cell-based; details: 24 h
Experimental: as §1
The effect of C1 on tumor cell invasiveness was assessed by transwell assay. In brief, the transwell chamber was pre-coated with 70 μL diluted matrigel for 8 h at 37 °C. A549 cells were seeded to the upper chamber, and then C1 was added to the chamber. After 24 h of incubation, the chambers were washed, stained with 0.5% crystal violet for 20 min, and captured using an inverted microscope.

A549 cells [6] = assay: Mitochondrial membrane potential (JC-1, flow cytometry); format: cell-based; details: C1 8 μM, 24 h
Experimental: Mitochondria play a key role in death signals through intrinsic and extrinsic apoptosis. Therefore, after exposure to C1, A549 cells were stained with a JC-1 probe to evaluate the mitochondrial membrane potential (ΔΨm) using flow cytometry.
Exponentially growing A549 cells were cultured in 6-well plates. Subsequently, C1 (4 μM and 8 μM) was exposed to the cells for 24 h. The cells were stained with JC-1 probe and analyzed by flow cytometry.

A549 cells [7] = assay: Cell apoptosis analysis (Annexin V/PI, flow cytometry); format: cell-based; details: 24 h, control 4.0%
Experimental: Then, the effect of C1 on A549 cells apoptosis was stained with Annexin V/PI and analyzed using flow cytometry.
The A549 cells were placed in 6-well plates and incubated overnight. The cells were treated with C1 (4 μM and 8 μM) and incubated for 24 h. Subsequently, the cells were harvested and stained with Annexin V/PI for 20 min. The samples were detected by flow cytometry.

CT-DNA = assay: EB-DNA fluorescence-quenching assay; format: binding; details: C1 0−16 μM, 8 μM EB, 10 μM CT-DNA, pH 7.2 Tris–HCl
Experimental: Competitive studies with ethidium bromide (EB) have been widely used in fluorescence-quenching assays to evaluate the interaction between DNA and small molecules. Therefore, to further explore the binding property of C1 and DNA, fluorescence quenching was carried out to explore the interaction mode.
The fluorescence spectrum was performed to measure the interaction mode of C1 (0−16 μM) and EB-DNA (8 μM ethidium bromide added into 10 μM CT-DNA) in a pH 7.2 Tris–HCl buffer. The EB-DNA was excited at 510 nm, and for the emission spectra, the emission range was set to 530–750 nm. C1 was gradually added to the EB-DNA solution.

A549 cells [8] = assay: Cell cycle analysis (PI, flow cytometry); format: cell-based; details: 48 h
Experimental: The influence of metal compounds on cell cycle arrest contributes to their anticancer activity. To determine the effect of C1 on the cell cycle, the distribution of the cell cycle of C1-treated A549 cells was detected using flow cytometry.
The A549 cells were seeded into 10 cm dishes and incubated overnight. Subsequently, the cells were treated with C1 (4 μM and 8 μM). After 48 h, the cells were collected, fixed with 75% ethanol overnight, stained with PI for 20 min, and measured by flow cytometry.

A549 cells [9] = assay: β-Galactosidase staining assay (senescence); format: cell-based; details: 24 h treatment
Experimental: Senescence is a permanent cellular stage involving cell cycle arrest, which is a potential strategy against cancer. We measured the impact of C1 on cell senescence in A549 cells using a β-galactosidase staining assay. The senescent cells were dyed blue by β-galactosidase.
A549 cells were cultured in 6-well plates and incubated overnight. After C1 treatment for 24 h, the cells were fixed. Then, 20 min later, the cells were washed and stained with β-galactosidase for 48 h. The stained cells were observed and captured using an inverted microscope.

A549 cells [10] = assay: Measurement of cellular ROS (H2DCF-DA, flow cytometry); format: cell-based; details: 4 μM and 8 μM, 24 h, vs control
Experimental: A change in the mitochondrial membrane potential results in mitochondrial dysfunction, which can induce reactive oxygen species (ROS) production. Based on the above information, we detected the ROS level in A549 cells using flow cytometry.
The ROS in A549 cells was analyzed by flow cytometry. After pretreatment with C1 (4 μM and 8 μM) for 24 h, the A549 cells were collected and stained with H2DCF-DA. After 20 min, the samples were measured using a flow cytometer.

A549 cells [11] = assay: Comet assay (DNA damage); format: cell-based
Experimental: Excessive intracellular ROS can cause DNA damage and cell death. Next, a comet assay was performed to determine whether C1 caused DNA damage. Undamaged DNA cannot migrate, and fluorescence is only confined to the nucleus. In DNA-damaged cells, negatively charged DNA fragments are then released from the nucleus and migrate towards the anode. There was no comet-like cell observed in the control group. In comparison, C1-treated cells with longer tails (white arrows) were observed, and a higher percentage, indicating the existence of severe DNA fragmentation (Figure 7B).
The A549 cells were seed into 6-well plates and treated with C1. A mixture of 10 μL cell suspension and 70 μL low-melting-point agarose (1%) were placed on a glass microscope slide (pre-coated with 1% normal-melting-point agarose) and covered with coverslips. The cells were separate by gel electrophoresis, stained with PI, and captured using an inverted fluorescence microscope.

A549 tumor = assay: In vivo antitumor experiment in mice bearing A549 tumors; set-up: species or system BALB/C nude mice; details: for Tumor growth inhibition rate: two weeks, mice bearing A549 tumors
Experimental: Based on these promising biological properties, the in vivo therapeutic efficacy of C1 was further investigated in mice bearing A549 tumors. […] Generally, body weight change is considered a key indicator of systemic toxicity.
In addition, TUNEL (terminal deoxynucleotidyl transferase dUTP nick end labeling) staining of tumor tissue sections was performed to examine the effect of C1 on apoptosis in vivo. […] Histological analyses were carried out using H&E (hematoxylin and eosin) staining to evaluate the toxicity of C1 for the major organ.
BALB/C nude mice (6–8 weeks old, 18–22 g) were purchased from Hunan SJA Laboratory Animal Co., Ltd. An amount of 200 μL of A549 cells (containing 2 × 10^6 cells) were subcutaneously injected into the left flank of the mice. The mice were randomly divided into 3 groups when the average tumor size reached 100 mm^3. Then, the mice were treated with saline and C1 (2.5 and 5 mg/kg) for two weeks. C1 was dissolved in saline. During the treatment, the tumor volume and body weight of mice were measured every two days. The major organs (heart, kidney, and liver) and tumor tissues were harvested and sliced for H&E staining and TUNEL staining, respectively.

For “5-chloro-2-N-(2-quinolylmethylene)aminophenoxide-Zn(II)-chloride/pyridine [C2]”, the IC50 (MCF-7) was 23.6 ± 0.98 µM, the IC50 (Hela) was 22.8 ± 0.8 µM and the IC50 [1] was 29.3 ± 0.85 µM. The IC50 (WI-38) was 34 ± 1.06 µM and the IC50 (A549 cells [2]; read-out: IC50 A549, MTT assay) was 18.3 ± 0.52 µM.

In the case of [Cl][Cu][O]c1cc(Cl)ccc1N=Cc1ccc2ccccc2n1 [C1, 5-chloro-2-N-(2-quinolylmethylene)aminophenoxide-Cu(II)-chloride], the Solubility in saline [3] is reported as ≥ 1900 µg/mL, the IC50 (MCF-7) is reported as 5.3 ± 0.35 µM and the IC50 (Hela) is reported as 6.31 ± 0.32 µM. The IC50 [1] was 6.79 ± 0.38 µM, the IC50 (WI-38) was 10.2 ± 0.43 µM and the “Effect on migration of A549 cells” value (A549 cells [4]) was “strongly inhibited the migration ability of A549 cells”. For the same compound, the “Effect on invasion of A549 cells” value (A549 cells [5]) was “could inhibit the invasion abilities of A549 cells”, the “ΔΨm of A549 cells reduced by (JC-1)” value (A549 cells [6]) was 23.7% and the “Population of apoptotic cells” value (A549 cells [7]; C1 4 μM) was 15.0%. For the same compound, the “Population of apoptotic cells” value (A549 cells [7]; C1 8 μM) was 23.8%, the “DNA binding mode (EB displacement)” value (CT-DNA) was “binds to DNA in an intercalative binding mode” and the “Percentage of cells in G0/G1 phase” value (A549 cells [8]; C1 4 μM) was 48.85%. For the same compound, the “Percentage of cells in G2/M phase” value (A549 cells [8]; C1 4 μM) was 7.98%, the “Percentage of cells in S phase” value (A549 cells [8]; C1 4 μM) was 43.17% and the “Percentage of cells in G0/G1 phase” value (A549 cells [8]; C1 8 μM) was 54.45%. For the same compound, the “Percentage of cells in G2/M phase” value (A549 cells [8]; C1 8 μM) was 9.96%, the “Percentage of cells in S phase” value (A549 cells [8]; C1 8 μM) was 35.59% and the “Cell senescence (β-galactosidase staining)” value (A549 cells [9]) was “can induce A549 cell senescence”. For the same compound, the “Intracellular ROS level” value (A549 cells [10]) was “significantly increased”, the “DNA damage (comet assay)” value (A549 cells [11]) was “induces DNA damage” and the “Tumor growth inhibition rate” value (A549 tumor; C1 2.5 mg/kg) was 46.3%. The “Tumor growth inhibition rate” value (A549 tumor; C1 5 mg/kg) was 63.5%, the Body weight change (A549 tumor; C1 2.5 and 5 mg/kg, vs control group) was “no apparent weight loss” and the “Histology of heart, liver, and kidney (H&E staining)” value (A549 tumor; after treatment with C1) was “no pathological alterations or other abnormalities”. The “Apoptosis in tumor tissue (TUNEL staining)” value (A549 tumor; tumor tissue sections) was “notable cell apoptosis” and the IC50 (A549 cells [2]; read-out: IC50 A549, MTT assay) was 3.93 ± 0.28 µM.

With O.O.[Cl][Mn][O]c1cc(Cl)ccc1N=Cc1ccc2ccccc2n1 [C3, 5-chloro-2-N-(2-quinolylmethylene)aminophenoxide-Mn(II)-chloride/dihydrate] the Solubility in saline [3] was ≥ 800 µg/mL, the IC50 (MCF-7) was > 40 µM and the IC50 (Hela) was > 40 µM. The IC50 [1] was > 40 µM, the IC50 (WI-38) was > 40 µM and the IC50 (A549 cells [2]; read-out: IC50 A549, MTT assay) was 33.6 ± 0.98 µM.

With N.N.[Cl][Pt][Cl] [Cisplatin, reference compound] the IC50 (MCF-7) was 14.5 ± 0.48 µM, the IC50 (Hela) was 15.3 ± 0.51 µM and the IC50 [1] was > 40 µM. It also gave an IC50 (WI-38) of 9.61 ± 0.58 µM and an IC50 (A549 cells [2]; read-out: IC50 A549, MTT assay) of 12.5 ± 0.45 µM.

For Oc1cc(Cl)ccc1/N=C/c1ccc2ccccc2n1 [L, 5-chloro-2-N-(2-quinolylmethylene) aminophenol], the IC50 (MCF-7; Homo sapiens, MCF7) was > 40 µM, the IC50 (Hela; Homo sapiens, HeLa) was > 40 µM and the IC50 [1] was > 40 µM. For the same compound, the IC50 (WI-38; Homo sapiens, WI-38) was > 40 µM and the IC50 (A549 cells [2]; Homo sapiens, A549, read-out: IC50 A549) was > 40 µM.
